Several values for one entry are separate records, joined by “and”; a condition that tells them apart may be missing. Equal values may be shown once.
What was measured:
Assay type in all cases: binding
SARS-CoV-2 Mpro F3A = SARS-CoV-2 Mpro F3A (Severe acute respiratory syndrome coronavirus 2, UniProt P0DTD1, F3266A)
SARS-CoV-2 Mpro R4A = SARS-CoV-2 Mpro R4A (Severe acute respiratory syndrome coronavirus 2, UniProt P0DTD1, R3267A)
SARS-CoV-2 Mpro K5A = SARS-CoV-2 Mpro K5A (Severe acute respiratory syndrome coronavirus 2, UniProt P0DTD1, K3268A)
SARS-CoV-2 Mpro Y126A = SARS-CoV-2 Mpro Y126A (Severe acute respiratory syndrome coronavirus 2, UniProt P0DTD1, Y3389A)
SARS-CoV-2 Mpro N142A = SARS-CoV-2 Mpro N142A (Severe acute respiratory syndrome coronavirus 2, UniProt P0DTD1, N3405A)
SARS-CoV-2 Mpro E288A = SARS-CoV-2 Mpro E288A (Severe acute respiratory syndrome coronavirus 2, UniProt P0DTD1, E3551A)
SARS-CoV-2 Mpro F291A = SARS-CoV-2 Mpro F291A (Severe acute respiratory syndrome coronavirus 2, UniProt P0DTD1, F3554A)
SARS-CoV-2 PLpro D164A = SARS-CoV-2 PLpro D164A (Severe acute respiratory syndrome coronavirus 2, UniProt P0DTD1, D1727A)
SARS-CoV-2 PLpro R166A = SARS-CoV-2 PLpro R166A (Severe acute respiratory syndrome coronavirus 2, UniProt P0DTD1, R1729A)
SARS-CoV-2 PLpro Y264A = SARS-CoV-2 PLpro Y264A (Severe acute respiratory syndrome coronavirus 2, UniProt P0DTD1, Y1827A)
SARS-CoV-2 PLpro Y268A = SARS-CoV-2 PLpro Y268A (Severe acute respiratory syndrome coronavirus 2, UniProt P0DTD1, Y1831A)
SARS-CoV-2 PLpro Y273A = SARS-CoV-2 PLpro Y273A (Severe acute respiratory syndrome coronavirus 2, UniProt P0DTD1, Y1836A)
SARS-CoV-2 PLpro Y251A = SARS-CoV-2 PLpro Y251A (Severe acute respiratory syndrome coronavirus 2, UniProt P0DTD1, Y1814A)
SARS-CoV-2 PLpro E252A = SARS-CoV-2 PLpro E252A (Severe acute respiratory syndrome coronavirus 2, UniProt P0DTD1, E1815A)
SARS-CoV-2 PLpro L253A = SARS-CoV-2 PLpro L253A (Severe acute respiratory syndrome coronavirus 2, UniProt P0DTD1, L1816A)
SARS-CoV-2 PLpro K254A = SARS-CoV-2 PLpro K254A (Severe acute respiratory syndrome coronavirus 2, UniProt P0DTD1, K1817A)
SARS-CoV-2 PLpro T257A = SARS-CoV-2 PLpro T257A (Severe acute respiratory syndrome coronavirus 2, UniProt P0DTD1, T1820A)
SARS-CoV-2 PLpro F258A = SARS-CoV-2 PLpro F258A (Severe acute respiratory syndrome coronavirus 2, UniProt P0DTD1, F1821A)
SARS-CoV-2 PLpro V303A = SARS-CoV-2 PLpro V303A (Severe acute respiratory syndrome coronavirus 2, UniProt P0DTD1, V1866A)

SMILES: Cc1cc(O)c(O)c(Oc2cc(C)cc(O)c2Oc2cc(C)cc(O)c2O)c1 [Sydowiol B, sydowiol B]
- Tm value (SARS-CoV-2 Mpro F3A): 53.05 ± 0.12 (1.05) ℃ and 52.84 ± 0.19 (0.84) ℃ and 53.05 ± 0.03 (1.05) ℃
- △Tm (SARS-CoV-2 Mpro F3A): 53.05 ± 0.12 (1.05) ℃ and 52.84 ± 0.19 (0.84) ℃ and 53.05 ± 0.03 (1.05) ℃
- Tm value (SARS-CoV-2 Mpro R4A): 54.54 ± 0.06 (0.84) ℃ and 54.25 ± 0.27 (0.55) ℃ and 54.16 ± 0.03 (0.46) ℃
- △Tm (SARS-CoV-2 Mpro R4A): 54.54 ± 0.06 (0.84) ℃ and 54.25 ± 0.27 (0.55) ℃ and 54.16 ± 0.03 (0.46) ℃
- Tm value (SARS-CoV-2 Mpro K5A): 47.98 ± 0.07 (0.63) ℃
- △Tm (SARS-CoV-2 Mpro K5A): 47.98 ± 0.07 (0.63) ℃
- Tm value (SARS-CoV-2 Mpro Y126A): 47.88 ± 0.22 (1.58) ℃
- △Tm (SARS-CoV-2 Mpro Y126A): 47.88 ± 0.22 (1.58) ℃
- Tm value (SARS-CoV-2 Mpro N142A): 58.18 ± 0.03 (5.56) ℃ and 57.22 ± 0.07 (4.60) ℃ and 56.43 ± 0.24 (3.81) ℃
- △Tm (SARS-CoV-2 Mpro N142A): 58.18 ± 0.03 (5.56) ℃ and 57.22 ± 0.07 (4.60) ℃ and 56.43 ± 0.24 (3.81) ℃
- Tm value (SARS-CoV-2 Mpro E288A): 54.03 ± 0.10 (1.14) ℃ and 53.21 ± 0.11 (0.32) ℃
- △Tm (SARS-CoV-2 Mpro E288A): 54.03 ± 0.10 (1.14) ℃ and 53.21 ± 0.11 (0.32) ℃
- Tm value (SARS-CoV-2 Mpro F291A): 61.29 ± 0.01 (-0.08) ℃ and 61.37 ± 0.01 (0.00) ℃ and 61.44 ± 0.01 (0.07) ℃
- △Tm (SARS-CoV-2 Mpro F291A): 61.29 ± 0.01 (-0.08) ℃ and 61.37 ± 0.01 (0.00) ℃ and 61.44 ± 0.01 (0.07) ℃
- Tm value (SARS-CoV-2 PLpro D164A): 44.58 ± 0.62 (2.03) ℃ and 45.84 ± 0.11 (3.29) ℃ and 46.83 ± 0.21 (4.28) ℃
- △Tm (SARS-CoV-2 PLpro D164A): 44.58 ± 0.62 (2.03) ℃ and 45.84 ± 0.11 (3.29) ℃ and 46.83 ± 0.21 (4.28) ℃
- Tm value (SARS-CoV-2 PLpro R166A): 50.86 ± 0.55 (3.18) ℃
- △Tm (SARS-CoV-2 PLpro R166A): 50.86 ± 0.55 (3.18) ℃
- Tm value (SARS-CoV-2 PLpro Y264A): 46.21 ± 0.86 (0.01) ℃ and 45.93 ± 0.03 (-0.27) ℃ and 46.48 ± 0.43 (0.28) ℃
- △Tm (SARS-CoV-2 PLpro Y264A): 46.21 ± 0.86 (0.01) ℃ and 45.93 ± 0.03 (-0.27) ℃ and 46.48 ± 0.43 (0.28) ℃
- Tm value (SARS-CoV-2 PLpro Y268A): 50.46 ± 0.65 (3.82) ℃
- △Tm (SARS-CoV-2 PLpro Y268A): 50.46 ± 0.65 (3.82) ℃
- Tm value (SARS-CoV-2 PLpro Y273A): 51.09 ± 0.23 (-0.85) ℃ and 50.59 ± 0.10 (-1.35) ℃ and 51.21 ± 0.00 (-0.73) ℃
- △Tm (SARS-CoV-2 PLpro Y273A): 51.09 ± 0.23 (-0.85) ℃ and 50.59 ± 0.10 (-1.35) ℃ and 51.21 ± 0.00 (-0.73) ℃
- Tm value (SARS-CoV-2 PLpro Y251A): 47.78 ± 0.39 (2.41) ℃ and 46.46 ± 0.07 (1.09) ℃
- △Tm (SARS-CoV-2 PLpro Y251A): 47.78 ± 0.39 (2.41) ℃ and 46.46 ± 0.07 (1.09) ℃
- Tm value (SARS-CoV-2 PLpro E252A): 44.10 ± 0.20 (0.75) ℃ and 45.88 ± 0.48 (2.53) ℃ and 47.86 ± 0.13 (4.51) ℃
- △Tm (SARS-CoV-2 PLpro E252A): 44.10 ± 0.20 (0.75) ℃ and 45.88 ± 0.48 (2.53) ℃ and 47.86 ± 0.13 (4.51) ℃
- Tm value (SARS-CoV-2 PLpro L253A): 50.09 ± 0.49 °C
- Tm value (SARS-CoV-2 PLpro K254A): 46.61 ± 0.16 (3.31) ℃ and 46.23 ± 0.29 (2.93) ℃
- △Tm (SARS-CoV-2 PLpro K254A): 46.61 ± 0.16 (3.31) ℃ and 46.23 ± 0.29 (2.93) ℃
- Tm value (SARS-CoV-2 PLpro T257A): 47.76 ± 0.27 (4.16) ℃
- △Tm (SARS-CoV-2 PLpro T257A): 47.76 ± 0.27 (4.16) ℃
- Tm value (SARS-CoV-2 PLpro F258A): 47.68 ± 0.06 °C
- Tm value (SARS-CoV-2 PLpro V303A): 52.24 ± 0.13 (5.12) ℃
- △Tm (SARS-CoV-2 PLpro V303A): 52.24 ± 0.13 (5.12) ℃

Source: article PMC11699025 (Natural Products and Bioprospecting, 2025)
